The text below walks through data of publication PMC12608329, “Inhibition of α-Glucosidase Activity and Islet Amyloid PolyPeptide Fibril Formation by Rubus ulmifolius Fruit Extract: A Potential Therapeutic Approach for Type 2 Diabetes Mellitus” (Plants, 2025).

The nature of assay [1]: ABTS radical scavenging activity. To be noted: mean ± SD, three independent assays. The procedure:
[50]. A volume of 10 μL of the extract was mixed with 1 mL of ABTS+ solution previously diluted to reach an absorbance of approximately 0.70 ± 0.05 (mean ± SD). After 1 min of incubation, the absorbance was recorded at 734 nm. Trolox (6-hydroxy-2,5,7,8-tetramethylchroman-2-carboxylic acid) was employed as the reference antioxidant. Results were expressed as the effective concentration required to achieve 50% reduction of the initial absorbance (EC50).

In another assay the test system is IAPP. Details: method as in PMID 40305223. To be noted: cited from earlier work.
For assay [2], the system named is human islets exposed to amylin. Further details: method as in PMID 34614009. Conditions: cited from earlier work.

Take `Cc1c(C)c2c(c(C)c1O)CCC(C)(C(=O)O)O2` (centres unmarked) [Trolox, 6-hydroxy-2,5,7,8-tetramethylchroman-2-carboxylic acid]: in assay [1], the “ABTS EC50” value is listed as 3.4 ± 0.3 µg/mL.
For the molecule `COc1cc(/C=C/C(=O)CC(=O)/C=C/c2ccc(O)c(OC)c2)ccc1O` [curcumin], the IAPP aggregation entry with IAPP is recorded as “reduce IAPP aggregation”.
For the molecule `OC[C@H]1O[C@@H](Oc2cc3c(O)cc(O)cc3[o+]c2-c2ccc(O)c(O)c2)[C@H](O)[C@@H](O)[C@@H]1O` [cyanidin 3-O-glucoside, cyanidin-3-O-glucoside], in assay [2], the “amyloid formation in human islets exposed to amylin” value was “inhibit amyloid formation” and the “cell viability of human islets exposed to amylin” value is listed as “increase cell viability”.
On to epigallocatechin 3-gallate, for which, in the assay with IAPP, the IAPP aggregation entry is “reduce IAPP aggregation”.
